Structures can show the parent of a compound that is named as a salt. Where two headings read alike, the source gives them in different places.
Legend:
[1] = Protocol: Long-term/accelerated stability study: Samples of the free-state form were sealed in aluminum foil bags and left to stand under 25° C./60% RH and 40° C./75% RH conditions to study its stability.
Long-term/accelerated stability of salt forms: Samples were sealed in aluminum foil bags and left to stand under 25° C./60% RH and 40° C./75% RH conditions to study their stability.

Remark: listed apart in the source
[2] = high-temperature and high-humidity conditions
Protocol: Influencing factor stability study: Samples of the free-state form were taken, spread in open containers, and left to stand under high-temperature (40° C. and 60° C.) and high-humidity (RH 75% and RH 92.5%) conditions for 30 days to study its stability.
Influencing factor stability study of salt forms: Samples of the salt forms were taken, spread in open containers, and left to stand under high-temperature (40° C. and 60° C.) and high-humidity (RH 75%) conditions for 30 days to study their stability.

[3] = long-term accelerated conditions for 6 months

## C[C@H]1CC2(CCN(c3ccc(C(=O)N4CCC(CN5CCN(c6cccc(N[C@H]7CCC(=O)NC7=O)c6)CC5)CC4)cc3F)CC2)CN1c1ccc(C#N)c(Cl)c1 [Amorphous form of maleate]
[1]; long-term conditions for 6 months
  stability (in words): good chemical and physical stability

## C[C@H]1CC2(CCN(c3ccc(C(=O)N4CCC(CN5CCN(c6cccc(N[C@H]7CCC(=O)NC7=O)c6)CC5)CC4)cc3F)CC2)CN1c1ccc(C#N)c(Cl)c1 [Crystal form B of succinate]
[1]; [3]
  stability (in words): good chemical and physical stability

## C[C@H]1CC2(CCN(c3ccc(C(=O)N4CCC(CN5CCN(c6cccc(N[C@H]7CCC(=O)NC7=O)c6)CC5)CC4)cc3F)CC2)CN1c1ccc(C#N)c(Cl)c1 [crystal form A of D-mandelate]
[1]; long-term accelerated conditions for 6 months, listed as crystal form A of mandelate
  stability (in words): good chemical and physical stability
XRPD
  crystal form before and after DVS testing: the crystal form did not change before and after DVS testing
Humidity 0% to 95% RH
  desorption versus adsorption process: the desorption process of the sample overlapped with its adsorption process

## C[C@H]1CC2(CCN(c3ccc(C(=O)N4CCC(CN5CCN(c6cccc(N[C@H]7CCC(=O)NC7=O)c6)CC5)CC4)cc3F)CC2)CN1c1ccc(C#N)c(Cl)c1 [free-state amorphous form]
[2]
  stability (in words): good chemical stability
[1]; [3]
  stability (in words): good physical and chemical stability

— patent US20260317325A1, “AMORPHOUS SUBSTANCE AND CRYSTAL OF DIOXOPIPERIDINE COMPOUND OR PHARMACEUTICALLY ACCEPTABLE SALT THEREOF, PREPARATION METHOD, AND USE” (JIANGSU HENGRUI PHARMACEUTICALS CO., LTD., priority 2023, published 2026)
